Laboratory results reported in US20120016009A1, “Optimized Methods For Delivery Of DSRNA Targeting The PCSK9 Gene” (priority 2008, published 2012).
In the oligonucleotide strings, read from the 5' end, every base follows the letter of its sugar. An asterisk marks phosphorothioate; unmarked linkages are phosphodiester. Other units and linkages are bracketed, terminal groups are in braces. A string of capitals states the bases alone. d = 2'-deoxy (DNA); m = 2'-O-methyl; r = 2'-OH (RNA)

Test system: PCSK9 mRNA
Assay: PCSK9 siRNA screening in HepG2 cells (lipofectamine 2000 transfection, PCSK9 mRNA by Quantigene, normalized to GAP-DH)
Type: cell-based, human
Settings: for Mean percent remaining mRNA transcript at siRNA concentration/in cell type 3 nM/HepG2: 3 nM siRNA; for Mean percent remaining mRNA transcript at siRNA concentration/in cell type 30 nM/HepG2: 30 nM siRNA; for Mean percent remaining mRNA transcript at siRNA concentration/in cell type 100 nM/HepG2: 100 nM siRNA
Protocol: HuH-7 cells were obtained from JCRB Cell Bank (Japanese Collection of Research Bioresources) (Shinjuku, Japan, cat. No.: JCRB0403) Cells were cultured in Dulbecco's MEM (Biochrom AG, Berlin, Germany, cat. No. F0435) supplemented to contain 10% fetal calf serum (FCS) (Biochrom AG, Berlin, Germany, cat. No. S0115), Penicillin 100 U/ml, Streptomycin 100 μg/ml (Biochrom AG, Berlin, Germany, cat. No. A2213) and 2 mM L-Glutamin (Biochrom AG, Berlin, Germany, cat. No K0282) at 37° C. in an atmosphere with 5% CO2 in a humidified incubator (Heraeus HERAcell, Kendro Laboratory Products, Langenselbold, Germany) HepG2 and HeLa cells were obtained from American Type Culture Collection (Rockville, Md., cat. No. HB-8065) and cultured in MEM (Gibco Invitrogen, Karlsruhe, Germany, cat. No. 21090-022) supplemented to contain 10% fetal calf serum (FCS) (Biochrom AG, Berlin, Germany, cat. No. S0115), Penicillin 100 U/ml, Streptomycin 100 μg/ml (Biochrom AG, Berlin, Germany, cat. No. A2213), 1× Non Essential Amino Acids (Biochrom AG, Berlin, Germany, cat. No. K-0293), and 1 mM Sodium Pyruvate (Biochrom AG, Berlin, Germany, cat. No. L-0473) at 37° C. in an atmosphere with 5% CO2 in a humidified incubator (Heraeus HERAcell, Kendro Laboratory Products, Langenselbold, Germany).
For transfection with siRNA, HuH7, HepG2, or HeLa cells were seeded at a density of 2.0×10^4 cells/well in 96-well plates and transfected directly. Transfection of siRNA (30 nM for single dose screen) was carried out with lipofectamine 2000 (Invitrogen GmbH, Karlsruhe, Germany, cat. No. 11668-019) as described by the manufacturer.
24 hours after transfection HuH7 and HepG2 cells were lysed and PCSK9 mRNA levels were quantified with the Quantigene Explore Kit (Genosprectra, Dumbarton Circle Fremont, USA, cat. No. QG-000-02) according to the protocol. PCSK9 mRNA levels were normalized to GAP-DH mRNA. For each siRNA eight individual datapoints were collected. siRNA duplexes unrelated to PCSK9 gene were used as control. The activity of a given PCSK9 specific siRNA duplex was expressed as percent PCSK9 mRNA concentration in treated cells relative to PCSK9 mRNA concentration in cells treated with the control siRNA duplex.
Tables 1b and 2b (and FIG. 6A) summarize the results and provide examples of in vitro screens in different cell lines at different doses. Silencing of PCSK9 transcript was expressed as percentage of remaining transcript at a given dose.
Very active sequences are those that have less than 60% of transcript remaining after treatment with a dose less than or equal to 100 nM. Active sequences are those that have less than 90% transcript remaining after treatment with a high dose (100 nM).

AD-9545: PCSK9 siRNA (sense rArGrUrCrArArGrGrArGrCrArUrGrGrArArUrCdT*dT; antisense rGrArUrUrCrCrArUrGrCrUrCrCrUrUrGrArCrUdT*dT)
Mean percent remaining mRNA transcript at siRNA concentration/in cell type 3 nM/HepG2: 43%
Mean percent remaining mRNA transcript at siRNA concentration/in cell type 30 nM/HepG2: 31%

AD-9612: PCSK9 siRNA (sense rArCrCrArCrCrGrGrGrArArArUrCrGrArGrGrGdT*dT; antisense rCrCrCrUrCrGrArUrUrUrCrCrCrGrGrUrGrGrUdT*dT)
Mean percent remaining mRNA transcript at siRNA concentration/in cell type 30 nM/HepG2: 122%

AD-9648: PCSK9 siRNA (sense rArArGrGrArGmCrAmUrGrGrArAmUmCmCmCrGrGdT*dT; antisense rCrCrGrGrGrArUrUrCmCrArUrGrCrUrCrCrUrUdT*dT)
Mean percent remaining mRNA transcript at siRNA concentration/in cell type 30 nM/HepG2: 78%

AD-9594: PCSK9 siRNA (sense rGrCrUrGrCrCrGrGrCrArArCrUrUrCrCrGrGrGdT*dT; antisense rCrCrCrGrGrArArGrUrUrGrCrCrGrGrCrArGrCdT*dT)
Mean percent remaining mRNA transcript at siRNA concentration/in cell type 30 nM/HepG2: 95%
Mean percent remaining mRNA transcript at siRNA concentration/in cell type 100 nM/HepG2: 80%

AD-9662: PCSK9 siRNA (sense mUmUrAmUmUmCrGrGrArArArArGmCmCrArGmCmUdT*dT; antisense rArGrCrUrGrGrCrUrUrUrUrCrCrGrArAmUrArAdT*dT)
Mean percent remaining mRNA transcript at siRNA concentration/in cell type 30 nM/HepG2: 81%

AD-9708: PCSK9 siRNA (sense mCmCrArGmCrAmUmCmCrAmCrGmCmUmUmCmCmUrGdT*dT; antisense mCrArGrGrArArGrCrGrUrGrGrArUrGrCrUrGrGdT*dT)
Mean percent remaining mRNA transcript at siRNA concentration/in cell type 30 nM/HepG2: 81%

AD-9754: PCSK9 siRNA (sense mUmUmCmUmCmUrGmCmCrArArArGrAmUrGmUmCrAdT*dT; antisense rUrGrAmCrArUrCrUrUrUrGrGmCrArGrArGrArAdT*dT)
Mean percent remaining mRNA transcript at siRNA concentration/in cell type 30 nM/HepG2: 89%

AD-9581: PCSK9 siRNA (sense rUrGrCrGrCrGrUrGrCrUrCrArArCrUrGrCrCrAdT*dT; antisense rUrGrGrCrArGrUrUrGrArGrCrArCrGrCrGrCrAdT*dT)
Mean percent remaining mRNA transcript at siRNA concentration/in cell type 30 nM/HepG2: 35%

AD-9685: PCSK9 siRNA (sense rGmUrGrAmCmCrAmCmCrGrGrGrArArAmUmCrGrAdT*dT; antisense rUrCrGrArUrUrUrCrCrCrGrGrUrGrGrUmCrArCdT*dT)
Mean percent remaining mRNA transcript at siRNA concentration/in cell type 30 nM/HepG2: 77%

AD-9543: PCSK9 siRNA (sense rCrGrCrGrUrGrCrUrCrArArCrUrGrCrCrArArGdT*dT; antisense rCrUrUrGrGrCrArGrUrUrGrArGrCrArCrGrCrGdT*dT)
Mean percent remaining mRNA transcript at siRNA concentration/in cell type 30 nM/HepG2: 51%

AD-9765: PCSK9 siRNA (sense rGmUrGmCmUrGrArGrGmCmCrAmCrGrArGrGmUmCdT*dT; antisense rGrArCrCrUrCrGrUrGrGrCrCrUmCrArGmCrArCdT*dT)
Mean percent remaining mRNA transcript at siRNA concentration/in cell type 3 nM/HepG2: 74%
Mean percent remaining mRNA transcript at siRNA concentration/in cell type 30 nM/HepG2: 82%

AD-9729: PCSK9 siRNA (sense mUmUmUmCmUrGrGrAmUrGrGmCrAmUmCmUrArGmCdT*dT; antisense rGrCmUrArGrArUrGrCmCrArUrCmCrArGrArArAdT*dT)
Mean percent remaining mRNA transcript at siRNA concentration/in cell type 30 nM/HepG2: 56%

AD-9683: PCSK9 siRNA (sense mCmCrAmCmCrGrGrGrArArAmUmCrGrArGrGrGmCdT*dT; antisense rGrCrCrCrUrCrGrArUrUrUrCrCrCrGrGrUrGrGdT*dT)
Mean percent remaining mRNA transcript at siRNA concentration/in cell type 30 nM/HepG2: 48%

AD-9764: PCSK9 siRNA (sense mCmUrGrGrArGmUmUmUrAmUmUmCrGrGrArArArAdT*dT; antisense rUrUrUrUrCrCrGrArAmUrArArArCrUrCmCrArGdT*dT)
Mean percent remaining mRNA transcript at siRNA concentration/in cell type 30 nM/HepG2: 112%

AD-9572: PCSK9 siRNA (sense rCrCrArGrGrUrGrCrUrGrCrCrUrGrCrUrArCrCdT*dT; antisense rGrGrUrArGrCrArGrGrCrArGrCrArCrCrUrGrGdT*dT)
Mean percent remaining mRNA transcript at siRNA concentration/in cell type 30 nM/HepG2: 53%
Mean percent remaining mRNA transcript at siRNA concentration/in cell type 100 nM/HepG2: 47%

AD-9738: PCSK9 siRNA (sense rAmCmCrAmCmCrGrGrGrArArAmUmCrGrArGrGrGdT*dT; antisense rCrCrCrUrCrGrArUrUrUrCrCrCrGrGrUrGrGrUdT*dT)
Mean percent remaining mRNA transcript at siRNA concentration/in cell type 30 nM/HepG2: 83%

AD-9645: PCSK9 siRNA (sense mCmCmCrArGmCmCrArGrGrAmUmUmCmCrGmCrGmCdT*dT; antisense rGrCrGrCrGrGrArArUrCrCrUrGrGrCrUrGrGrGdT*dT)
Mean percent remaining mRNA transcript at siRNA concentration/in cell type 30 nM/HepG2: 66%

AD-9591: PCSK9 siRNA (sense rArCrUrGrUrCrCrCrUrCrCrUrUrGrArGrCrArCdT*dT; antisense rGrUrGrCrUrCrArArGrGrArGrGrGrArCrArGrUdT*dT)
Mean percent remaining mRNA transcript at siRNA concentration/in cell type 30 nM/HepG2: 95%
Mean percent remaining mRNA transcript at siRNA concentration/in cell type 100 nM/HepG2: 75%

AD-9525: PCSK9 siRNA (sense rGrGrArGrUrUrUrArUrUrCrGrGrArArArArGrCdT*dT; antisense rGrCrUrUrUrUrCrCrGrArArUrArArArCrUrCrCdT*dT)
Mean percent remaining mRNA transcript at siRNA concentration/in cell type 30 nM/HepG2: 53%

AD-9682: PCSK9 siRNA (sense uGGuGGAGGuGuAucuccuTsT; antisense AGGAGAuAcACCUCcACcATsT; as printed in the source, key not given here)
Mean percent remaining mRNA transcript at siRNA concentration/in cell type 30 nM/HepG2: 38%

AD-9734: PCSK9 siRNA (sense mUrGmCmUrArGmCmCmUmUrGmCrGmUmUmCmCrGrAdT*dT; antisense rUrCrGrGrArArCrGmCrArArGrGrCmUrArGmCrAdT*dT)
Mean percent remaining mRNA transcript at siRNA concentration/in cell type 30 nM/HepG2: 91%

AD-9538: PCSK9 siRNA (sense rCrCrGrGrGrCrGrGrArUrGrArArUrArCrCrArGdT*dT; antisense rCrUrGrGrUrArUrUrCrArUrCrCrGrCrCrCrGrGdT*dT)
Mean percent remaining mRNA transcript at siRNA concentration/in cell type 30 nM/HepG2: 80%
Mean percent remaining mRNA transcript at siRNA concentration/in cell type 100 nM/HepG2: 79%

AD-9566: PCSK9 siRNA (sense rUrGrCrCrGrGrGrCrCrCrArCrArArCrGrCrUrUdT*dT; antisense rArArGrCrGrUrUrGrUrGrGrGrCrCrCrGrGrCrAdT*dT)
Mean percent remaining mRNA transcript at siRNA concentration/in cell type 30 nM/HepG2: 38%

AD-9562: PCSK9 siRNA (sense rUrCrUrCrCrUrArGrArCrArCrCrArGrCrArUrAdT*dT; antisense rUrArUrGrCrUrGrGrUrGrUrCrUrArGrGrArGrAdT*dT)
Mean percent remaining mRNA transcript at siRNA concentration/in cell type 3 nM/HepG2: 51%
Mean percent remaining mRNA transcript at siRNA concentration/in cell type 30 nM/HepG2: 46%

AD-9750: PCSK9 siRNA (sense mCrGmUmCrArGmCmUmCmCrArGrGmCrGrGmUmCmCdT*dT; antisense rGrGrArCrCrGrCrCrUrGrGrArGrCrUrGrArCrGdT*dT)
Mean percent remaining mRNA transcript at siRNA concentration/in cell type 30 nM/HepG2: 96%

AD-9634: PCSK9 siRNA (sense rCrUrCrUrGrUrUrGrCrCrUrUrUrUrUrArCrArGdT*dT; antisense rCrUrGrUrArArArArArGrGrCrArArCrArGrArGdT*dT)
Mean percent remaining mRNA transcript at siRNA concentration/in cell type 3 nM/HepG2: 30%
Mean percent remaining mRNA transcript at siRNA concentration/in cell type 30 nM/HepG2: 29%

AD-9549: PCSK9 siRNA (sense rGrGrGrCrCrCrArCrArArCrGrCrUrUrUrUrGrGdT*dT; antisense rCrCrArArArArGrCrGrUrUrGrUrGrGrGrCrCrCdT*dT)
Mean percent remaining mRNA transcript at siRNA concentration/in cell type 30 nM/HepG2: 50%

AD-9601: PCSK9 siRNA (sense rArGrGrGrUrCrArUrGrGrUrCrArCrCrGrArCrUdT*dT; antisense rArGrUrCrGrGrUrGrArCrCrArUrGrArCrCrCrUdT*dT)
Mean percent remaining mRNA transcript at siRNA concentration/in cell type 30 nM/HepG2: 111%
